pIC50: −log10 of the molar value. ≈ marks a conversion by molar mass, not a printed value. Read-outs that look alike come from different tables or passages of the source.
Assays:
S. aureus ATCC 29213 = experiment: Broth microdilution MIC assay; format: cell-based; details: Staphylococcus aureus, ATCC29213; CA-MHB, 35° C., 20 hours
Method: (§1) The antibacterial activity of FabI inhibitors against select Gram-negative and Gram-positive bacterial species including susceptible and multi-drug resistant A. baumannii, E. coli, K. pneumoniae and S. aureus was tested using the broth microdilution Minimal Inhibitory Concentration (MIC) assay following CLSI guidelines for insoluble compounds. Test articles were serially diluted 2-fold in 100% dimethyl sulfoxide (DMSO) and then diluted 100-fold into cation adjusted Mueller-Hinton broth (CA-MHB) to achieve a 10-point test concentration range in 1% DMSO. Final compound concentrations were 0.016-8 μg/ml for S. aureus or 0.06-32 μg/ml for the Gram-negative species. MIC test plates were then prepared by transferring 100 μl of the final assay medium (test article in CA-MHB, 1% DMSO) into the appropriate wells of a sterile, low binding 96-well polystyrene plate. Direct colony suspension inoculums of the test strains were freshly prepared per CLSI guidelines, and the appropriate test wells were inoculated to achieve a final bacterial cell density of 5×10^5 CFU/ml. Growth control (no test article) and negative control (no bacterial inoculum) wells were also included. Exposure to light was minimized during all stages of assay preparation. […] Bacterial growth was then determined by measuring the optical density at 600 nm (OD600) using a SpectraMax Plus plate-reader spectrophotometer.

E. coli AG100 = experiment: Broth microdilution MIC assay; format: cell-based; details: Escherichia coli, CA-MHB, 35° C., 20 hours
Method: as §1

[1] = test system: A. baumannii ATCC BAA1605; experiment: Broth microdilution MIC assay; format: cell-based; details: Acinetobacter baumannii, ATCCBAA1605; CA-MHB, 35° C., 20 hours
Method: as §1

[2] = target: FabI enzyme from Acinetobacter baumannii (Acinetobacter baumannii, UniProt D0CAD5); experiment: Inhibition of FabI enzyme, rate of NADH consumption; format: biochemical
FabI enzyme from Acinetobacter baumannii, sequence (D0CAD5 entry or part of it): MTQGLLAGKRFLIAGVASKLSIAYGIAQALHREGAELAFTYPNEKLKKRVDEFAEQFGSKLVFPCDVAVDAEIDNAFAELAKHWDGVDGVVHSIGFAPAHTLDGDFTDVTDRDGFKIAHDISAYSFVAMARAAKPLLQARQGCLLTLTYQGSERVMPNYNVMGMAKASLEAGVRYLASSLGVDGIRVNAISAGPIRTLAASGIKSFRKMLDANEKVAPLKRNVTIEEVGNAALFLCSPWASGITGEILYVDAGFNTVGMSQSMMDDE
Method: Inhibition of FabI enzyme from Acinetobacter baumannii and Escherichia coli was tested by measuring the rate of NADH consumption (Δabsorbance at 340 nm/min) at 30° C. in 96-well plate format using an automated plate reader in the presence or absence of the test compounds. The assay mixture contained 100 mM Tris-HCl, pH 7.25 (A. baumannii) or 7.5 (E. coli), 100 mM ammonium acetate, 0.02% (A. baumannii) or 0.05% (E. coli) Pluronic F-68, 25 μM crotonyl ACP, 50 μM NADH, 25 pM (A. baumannii) or 50 pM (E. coli) recombinant FabI protein, and 7.5% DMSO. Test compounds were added at concentrations ranging from 0.17 to 10,000 nM in a final well volume of 100 μl. This dose-response inhibitory assay was performed using a 10-point, serial dilution series for each test compound. IC50 values for each test compound were assigned from logistical sigmoid curve-fitting of the inhibition dose response curves.

K. pneumoniae A6030827 = experiment: Broth microdilution MIC assay; format: cell-based; details: Klebsiella pneumoniae, CA-MHB, 35° C., 20 hours
Method: as §1

A. baumannil ATCC 17978 = experiment: Mouse lung infection model; format: in vivo, BALB/c mice; details: 3 mg/kg q12h SC
Method: (§2) Groups of 5 female specific-pathogen-free BALB/c mice weighing 18±2 g were used. In the 24 hr model (bacterial counts determined 24 hr after treatment start), mice were rendered neutropenic with cyclophosphamide intraperitoneal (IP) administration conducted at Days −4 (150 mg/kg), and day −1 (100 mg/kg). In the 72 hr model (bacterial counts determined 72 hr after treatment start), animals were rendered persistently neutropenic for the duration of the infection period with cyclophosphamide intraperitoneal (IP) administration conducted at Days −4 (150 mg/kg), −1 (100 mg/kg) and +1 (100 mg/kg). Persistent neutropenia is required to prevent pathogen clearance from lung tissue in the 74 hr model. Nutritional supplementation (diet gel) plus saline SC injections were provided daily to help animals tolerate the cyclophosphamide treatment.
On day 0, animals were anesthetized with etomidate-lipuro emulsion (20 mg/10 mL; 20 mg/kg dose, IV) and then inoculated intranasally with an A. baumannil ATCC 17978 suspension, 1.36×10^5 CFU/mouse, 0.02 mL/mouse. Vehicle control (40% Captisol), positive control (tigecycline) or test substances were then administered 2 hr post infection by the subcutaneous (SC) route of administration. Each dosing group consisted of 5 female mice. The MICs of the compounds against the test strain were 8 μg/ml and 0.5 μg/ml for compound 201 and compound 200, respectively. At 26 or 74 hours after inoculation (24 or 72 hr after treatment initiation), animals were euthanized with CO2 asphyxiation and the lung tissue harvested from each of the test animals. The tissues were homogenized in 1 ml of PBS, pH 7.4 with a homogenizer. Homogenates, 0.1 mL, were used for serial 10-fold dilutions and plated onto MacConkey II agar for colony counts. Efficacy is calculated as the change in log CFU/g […] vs. the time 0 (treatment initiation) control.

[3] = test system: Acinetobacter baumannii ATCC 17978; experiment: Mouse thigh infection model; format: in vivo, BALB/c mice; details: 3 mg/kg q12h SC
Method: as §2, with “thigh” for “lung”
On day 0, animals were inoculated intramuscularly (0.1 ml/thigh) with a 1.67×10^4 inoculum count of Acinetobacter baumannii ATCC 17978. Vehicle control (40% Captisol), positive control (tigecycline) or test substances were then administered 2 hr post infection by the subcutaneous (SC) route of administration. Each dosing group consisted of 5 female mice. The MICs of the compounds against the test strain were 8 μg/ml, 2 μg/ml and […] for compound 201, compound 71 and compound 200, respectively. At 26 or 74 hours after inoculation (24 or 72 hr after treatment initiation), animals were euthanized with CO2 asphyxiation and the thigh tissue harvested from each of the test animals. The tissues were homogenized in 3 mL of PBS, pH 7.4 with a homogenizer. Homogenates, 0.1 mL, were used for serial 10-fold dilutions and plated onto NB agar for colony counts. Efficacy is calculated as the change in log CFU/g thigh vs. the time 0 (treatment initiation) control.

[4] = recombinant FabI, 30° C., pH 7.25, read-out: A. baumannii Fabl IC50
[5] = total daily dose 6 mg/kg, 24 hr treatment
[6] = total daily dose 6 mg/kg, 72 hr treatment

SMILES | MIC (S. aureus ATCC 29213) [µg/mL] | MIC (E. coli AG100) [µg/mL] | MIC [1] [µg/mL] | MIC (K. pneumoniae A6030827) [µg/mL] | pIC50 [2] | further results
Cc1c(CN(C)C(=O)/C=C/c2cnc3c(c2)CCC(N2CCN(S(C)(=O)=O)CC2)C(=O)N3)oc2ccccc12 (stereo not shown) [Compound 187, (E)-N-methyl-N-((3-methylbenzofuran-2-yl)methyl)-3-(7-(4-(methylsulfonyl)piperazin-1-yl)-8-oxo-6,7,8,9-tetrahydro-5H-pyrido[2,3-b]azepin-3-yl)acrylamide] | ≤ 4 | 16 (≈ 29 µM) | ≤ 4 | – | – | pIC50 [2, 4]: > 8.00
Cc1c(CN(C)C(=O)/C=C/c2cnc3c(c2)N[C@H](C)[C@H](N)C(=O)N3)oc2ccccc12 [Compound 52, (E)-3-((2R,3S)-3-amino-2-methyl-4-oxo-2,3,4,5-tetrahydro-1H-pyrido[2,3-b][1,4]diazepin-8-yl)-N-methyl-N-((3-methylbenzofuran-2-yl)methyl)acrylamide] | ≤ 4 | ≤ 4 | ≤ 4 | – | – | pIC50 [2, 4]: > 8.00
Cc1c(CN(C)C(=O)/C=C/c2cnc3c(c2)CC[C@H](N)C(=O)N3)oc2c(F)cccc12.Cl (single isomer, unassigned) [Compound 107] | ≤ 4 | ≤ 4 | ≤ 4 | ≤ 4 | – | –
Cc1c(CN(C)C(=O)/C=C/c2cnc3c(c2)CC[C@H](N)C(=O)N3)oc2c(Cl)cccc12.Cl (single isomer, unassigned) [Compound 98] | ≤ 4 | ≤ 4 | ≤ 4 | ≤ 4 | – | –
Cc1c(CN(C)C(=O)/C=C/c2cnc3c(c2)CC[C@H](N)C(=O)N3)oc2cccc(CNc3cccnc3)c12.Cl.Cl (single isomer, unassigned) [Compound 167] | ≤ 4 | ≤ 4 | ≤ 4 | ≤ 4 | – | –
Cc1c(CN(C)C(=O)/C=C/c2cnc3c(c2)CC[C@H](N)C(=O)N3)oc2cccc(CNc3cccnc3)c12.Cl.Cl (single isomer, unassigned) [Compound 167, dihydrochloride] | – | – | – | – | > 8.00 | –
CC(=O)NC1CNc2cc(/C=C/C(=O)N(C)Cc3oc4ccccc4c3C)cnc2NC1=O (stereo not shown) [Compound 42, (E)-3-(3-acetamido-4-oxo-2,3,4,5-tetrahydro-1H-pyrido[2,3-b][1,4]diazepin-8-yl)-N-methyl-N-((3-methylbenzofuran-2-yl)methyl)acrylamide] | ≤ 4 | – | ≤ 4 | – | – | –
Cc1c(CN(C)C(=O)/C=C/c2cnc3c(c2)CC[C@H](N)C(=O)N3)oc2cccc(F)c12.Cl (single isomer, unassigned) [Compound 130] | ≤ 4 | ≤ 4 | ≤ 4 | ≤ 4 | – | –
Cc1c(CN(C)C(=O)/C=C/c2cnc3c(c2)CC[C@H](N)C(=O)N3)oc2ccc(Oc3cccnc3)cc12.Cl (single isomer, unassigned) [Compound 151, hydrochloride] | – | – | – | – | > 8.00 | –
Cc1c(CN(C)C(=O)/C=C/c2cnc3c(c2)CC[C@H](N)C(=O)N3)sc2ccccc12.Cl (single isomer, unassigned) [Compound 119] | ≤ 4 | ≤ 4 | ≤ 4 | ≤ 4 | – | –
Cc1c(CN(C)C(=O)/C=C/c2cnc3c(c2)CC[C@H](N)C(=O)N3)oc2ccc(Oc3cccnc3)cc12.Cl (single isomer, unassigned) [Compound 151] | ≤ 4 | ≤ 4 | – | ≤ 4 | – | –
CN(C)c1cc(NC(=O)CNC(C)(C)C)c(O)c2c1C[C@H]1C[C@H]3[C@H](N(C)C)C(O)=C(C(N)=O)C(=O)[C@@]3(O)C(O)=C1C2=O [Tigecycline, reference compound] | – | – | – | – | – | Mean change log CFU/g lung 24 hr (A. baumannil ATCC 17978; 24 hr, vs. time 0 control): −3.44 log CFU/g lung; Mean change log CFU/g lung 72 hr (A. baumannil ATCC 17978; 72 hr, vs. time 0 control): −4.74 log CFU/g lung; Mean Log CFU/g lung 24 hr (A. baumannil ATCC 17978; [5]): 2.87 log CFU/g lung; Mean Log CFU/g lung 72 hr (A. baumannil ATCC 17978; [6]): 1.57 log CFU/g lung; Mean Change log CFU/g thigh 24 hr ([3]; 24 hr, vs. time 0 control): −2.48 log CFU/g thigh; Mean Change log CFU/g thigh 72 hr ([3]; 72 hr, vs. time 0 control): −3.48 log CFU/g thigh; Mean Log CFU/g thigh 24 hr [3, 5]: 2.37 log CFU/g thigh; Mean Log CFU/g thigh 72 hr [3, 6]: 1.36 log CFU/g thigh
Cc1c(CN(C)C(=O)/C=C/c2cnc3c(c2)CC[C@H](N)C(=O)N3)sc2c(F)cccc12.Cl (single isomer, unassigned) [Compound 140] | ≤ 4 | ≤ 4 | ≤ 4 | ≤ 4 | – | –
Cc1c(CN(C)C(=O)/C=C/c2cnc3c(c2)CC[C@H](N)C(=O)N3)oc2cccc(F)c12.Cl (single isomer, unassigned) [Compound 130, hydrochloride] | – | – | – | – | > 8.00 | –
Cc1c(CN(C)C(=O)/C=C/c2cnc3c(c2)CC[C@H](N)C(=O)N3)sc2c(F)cccc12.Cl (single isomer, unassigned) [Compound 140, hydrochloride] | – | – | – | – | > 8.00 | –
Cc1oc2c(N)cccc2c1CN(C)C(=O)/C=C/c1cnc2c(c1)N[C@H](C)[C@H](N)C(=O)N2 [Compound 62, (E)-3-((2R,3S)-3-amino-2-methyl-4-oxo-2,3,4,5-tetrahydro-1H-pyrido[2,3-b][1,4]diazepin-8-yl)-N-((7-amino-2-methylbenzofuran-3-yl)methyl)-N-methylacrylamide] | ≤ 4 | ≤ 4 | ≤ 4 | – | – | pIC50 [2, 4]: > 8.00
Cc1c(CN(C)C(=O)/C=C/c2cnc3c(c2)CC[C@H](N)C(=O)N3)oc2c(F)cccc12.Cl (single isomer, unassigned) [Compound 107, hydrochloride] | – | – | – | – | > 8.00 | –
Cc1c(CN(C)C(=O)/C=C/c2cnc3c(c2)CC[C@H](N)C(=O)N3)oc2c(Cl)cccc12.Cl (single isomer, unassigned) [Compound 98, hydrochloride] | – | – | – | – | > 8.00 | –
